In the first assay the target is T1, Cloned Human Dopamine D3 Receptors (Homo sapiens, UniProt P35462).
T1 construct: expressed in transfected cells; membrane homogenate
T1 sequence (P35462 whole entry): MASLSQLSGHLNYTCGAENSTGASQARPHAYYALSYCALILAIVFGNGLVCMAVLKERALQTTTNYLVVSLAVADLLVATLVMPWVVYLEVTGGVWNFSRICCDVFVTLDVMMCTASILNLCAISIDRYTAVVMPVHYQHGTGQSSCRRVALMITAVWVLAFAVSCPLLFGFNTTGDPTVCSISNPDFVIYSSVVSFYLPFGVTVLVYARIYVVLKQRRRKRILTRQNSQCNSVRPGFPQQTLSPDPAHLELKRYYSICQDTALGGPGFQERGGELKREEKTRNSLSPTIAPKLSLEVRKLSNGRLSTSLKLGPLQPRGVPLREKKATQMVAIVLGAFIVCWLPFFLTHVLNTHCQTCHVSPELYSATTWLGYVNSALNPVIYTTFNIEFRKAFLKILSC
Briefly: [N-Methyl-3H]Spiroperidol binding to cloned human dopamine D3 receptors. The settings on record: Table 2; unit inferred; read-out: d3Ki. From the text: [N-Methyl-^3H]Spiroperidol Binding to Cloned Human Dopamine D3 Receptors
This assay measures the in vitro activity of compounds on cloned human dopamine (D3) receptors and predicts the direct dopamine-blocking properties of putative neuropsychiatric agents at human dopamine D3 receptors.
The D3 gene was isolated from a human striatal cDNA library (Stratagene). The gene was sequenced and sub-cloned into the expression vector RC/RSV (Invitrogen). CHO (Chinese Hamster Ovary) cells were stably transfected with 10 µg of the D3/RSV plasmid using the DOTAP method from Boehringer Mannheim and 72 clones that were G418 resistant were isolated. Using mRNA and binding displacement data a single high expressing clone was identified. This clone was then grown in large batches for the purpose of developing a 96 well format assay.
• 1. One plate (10 cm) with approximately 2-3 million D3 cells per plate is incubated with 1 ml of Trypsin-EDTA at room temperature for -2 min or until cells have lifted off plates. Four ml of Ham's F12 + 10% Fetal Bovine Serum + 1% Penicillin/Streptomycin + G418 (400 µg/ml) medium are added to resuspend cells and 1 ml of this is added to each large plate (15 cm) containing 19 ml of the same medium as mentioned above. • 2. The 5 large plates are incubated at 37°C + 5% CO2 for - 3 days or until the cells are confluent. • 3. After these plates are confluent, they are split into 10 large plates. Medium is aspirated off, 2 ml of Trypsin-EDTA are added to each plate and plates are incubated at RT for 2 min or until cells have lifted off the plate. Eight ml of the F12 medium (same medium as #1 above) are added to each plate (10 ml total) to resuspend the cells and 5 ml are transferred to the 2 new plates containing 15 ml of the F12 media. • 4. The 10 large plates are incubated at 37°C + 5% CO2 for ∼ 2 days or until the cells are confluent. • 5. The 10 large plates are split into 60 large plates (using Trypsin-EDTA as #3 except 4 ml of F12 medium are added to resuspend cells and 1 ml is aliquoted to 6 new plates containing 19 ml of F12 medium each). • 6. Plates are incubated at 37°C + 5% CO2 for - 3 days or until cell are confluent. • 7. The 60 large plates are then split into 60 roller bottles (100-150 million cells/bottle). Medium is aspirated off , 2 ml of Trypsin-EDTA are added to each plate and incubated at RT for -2 minutes or until cells have lifted off plates. Eight ml of F12 medium are added to each plate to resuspend cells and the entire 10 ml are added to 1 roller bottle containing 90 ml of the F12 medium. • 8. The 60 roller bottles are immediately placed on their sides and transferred to the roller bottle incubator. They are incubated at 37°C + 5% CO2 for ~ 3-5 days. Cells are spun at 30-40% motor speed in the Forma incubator. • 9. Medium is poured off and cells are washed 2X in PBS. • 10. Cells are then scraped off in 20 ml of PBS and the bottles are rinsed again with 5 ml of PBS to remove any remaining cells. Cells are stored on ice before membrane prepration. • 11. The yield for 60 D3 roller bottles has varied from - 260-500 mg. Note: All tissue culture reagents are from Gibco-BRL.
The cells are harvested into 250 ml centrifuge tubes with 100 volumes of cold phosphate buffered saline (PBS) and spun down (1200xG for 10 min at 4°C). The medium is removed and 100 ml PBS are added to each centrifuge tube, cells are resuspened and spun down again. The PBS is removed and the final pellet is homogenized in an appropriate volume of 10% DMSO with a polytron on ice at a medium setting.
A 200 µl sample membrane homogenate is added to 200 µl of 1% SDS, vortexed and allowed to stand for 5 min. Aliquots (25, 50 and 100 µl) of this mixture are assayed in duplicate following the standard Bio-Rad DC protein assay protocol (kit catalog number 500-0112) and using reagent S. Absorbance readings are made at 750 nm (note: the most accurate protein OD readings are between 0.1-0.5 units). […]
Regarding `CC1CCC(NC(=O)C2CC2CN2CCN(c3cccc(Cl)c3Cl)CC2)CC1` (centres unmarked) [compound 817037], the Ki was 0.98 nM.

With `COc1ccc(Cl)cc1N1CCN(CC2CC2C(=O)NC2CCC(C)CC2)CC1` (centres unmarked) [compound 817038], the Ki is 0.952 nM.

Turning to `CC1CCC(NC(=O)C2CC2CN2CCN(c3ccc(C(F)(F)F)cc3)CC2)CC1` (centres unmarked) [compound 817039], the Ki worked out at 14.8 nM.

As for `C[C@H]1CC[C@H](NC(=O)[C@@H]2C[C@H]2CN2CCN(c3ccccc3C#N)CC2)CC1` [compound 817040], the Ki is 0.804 nM.

`CCC1CCC(NC(=O)C2CC2CN2CCN(c3cccc(Cl)c3Cl)CC2)CC1` (centres unmarked) [compound 817041]: the Ki was determined as 0.776 nM.

Take `CCC1CCC(NC(=O)C2CC2CN2CCN(c3cc(Cl)ccc3OC)CC2)CC1` (centres unmarked) [compound 817042]: the Ki was determined as 0.615 nM.

Consider `CCC1CCC(NC(=O)C2CC2CN2CCN(c3ccc(C(F)(F)F)cc3)CC2)CC1` (centres unmarked) [compound 817043], for which the Ki was 7.2 nM.

For `CC[C@H]1CC[C@H](NC(=O)[C@@H]2C[C@H]2CN2CCN(c3ccccc3C#N)CC2)CC1` [compound 817044], the Ki was 1.1 nM.

Take `Cc1ccc(N2CCN(C[C@@H]3C[C@H]3C(=O)N[C@H]3CC[C@H](C)CC3)CC2)cc1C` [compound 817045]: the Ki is 5.36 nM.

For `CCC1CCC(NC(=O)C2CC2CN2CCN(c3ccc(C)c(C)c3)CC2)CC1` (centres unmarked) [compound 817046], the Ki is 1.92 nM.

Turning to `O=C(N[C@H]1CC[C@H](C(=O)N2CCCC2)CC1)[C@@H]1C[C@H]1CN1CCN(c2csc3cc(C(F)(F)F)ccc23)CC1` [compound 817047], the Ki is 2.86 nM.

Consider `CCN(CC)C(=O)[C@H]1CC[C@H](NC(=O)[C@@H]2C[C@H]2CN2CCN(c3csc4cc(C(F)(F)F)ccc34)CC2)CC1` [compound 817048], for which the Ki was determined as 2.85 nM.

As for `COCCNC(=O)C1CCC(NC(=O)C2CC2CN2CCN(c3csc4cc(C(F)(F)F)ccc34)CC2)CC1` (centres unmarked) [compound 817049], the Ki amounted to 7.02 nM.

Turning to `C[C@]1(O)CC[C@H](NC(=O)[C@@H]2C[C@H]2CN2CCN(c3csc4cc(C(F)(F)F)ccc34)CC2)CC1` [compound 817050], the Ki turned out to be 2.15 nM.

In the case of `C[C@]1(O)CC[C@@H](NC(=O)[C@@H]2C[C@H]2CN2CCN(c3csc4cc(C(F)(F)F)ccc34)CC2)CC1` [compound 817051], the Ki came out at 3.47 nM.

On to `CC[C@H]1CC[C@H](NC(=O)[C@@H]2C[C@H]2CN2CCN(c3ccc(Cl)c(Cl)c3)CC2)CC1` [compound 817090], for which the Ki turned out to be 2.17 nM.

Regarding `CC[C@H]1CC[C@H](NC(=O)[C@@H]2C[C@H]2CN2CCN(c3ccc(C)cc3C)CC2)CC1` [compound 817091], the Ki came out at 3.98 nM.

Regarding `CC[C@H]1CC[C@H](NC(=O)[C@@H]2C[C@H]2CN2CCN(c3ncc(C(F)(F)F)cc3Cl)CC2)CC1` [compound 817093], the Ki stood at 5.97 nM.

On to `COc1ccc(N2CCN(C[C@@H]3C[C@H]3C(=O)N[C@H]3CC[C@H](C)CC3)CC2)c(OC)c1` [compound 817094], for which the Ki stood at 8.89 nM.

For `C[C@H]1CC[C@H](NC(=O)[C@@H]2C[C@H]2CN2CCN(c3cc(Cl)cc(Cl)c3)CC2)CC1` [compound 817095], the Ki worked out at 0.671 nM.

On to `CC[C@H]1CC[C@H](NC(=O)[C@@H]2C[C@H]2CN2CCN(c3ccc(OC)cc3OC)CC2)CC1` [compound 817096], for which the Ki is 9.09 nM.

Regarding `CCC1CCC(NC(=O)C2CC2CN2CCN(c3cc(Cl)cc(Cl)c3)CC2)CC1` (centres unmarked) [compound 817097], the Ki was 0.636 nM.

On to `C[C@H]1CC[C@H](NC(=O)[C@@H]2C[C@H]2CN2CCN(c3cccc4[nH]ccc34)CC2)CC1` [compound 817098], for which the Ki was 1.06 nM.

For the compound `C[C@H]1CC[C@H](NC(=O)[C@@H]2C[C@H]2CN2CCN(c3cccc4ccccc34)CC2)CC1` [compound 817099], the Ki turned out to be 1.1 nM.

With `CCC1CCC(NC(=O)C2CC2CN2CCN(c3cccc4[nH]ccc34)CC2)CC1` (centres unmarked) [compound 817100], the Ki was found to be 0.75 nM.

Staying with this assay, now noted: read-out: d3Ki.
As to `O=C(NC1CCC(CO)CC1)C1CC1CN1CCN(c2csc3cc(C(F)(F)F)ccc23)CC1` (centres unmarked) [compound 816593], the Ki was found to be 7.47 nM.

Values taken from patent EP1935887A1, “Heterocyclic substituted carbonyl derivatives and their use as dopamine D3 receptor ligands” (Aventis Pharmaceuticals Inc., priority 2001, dated 2002).
